Results taken from PubChem BioAssay AID651986 (The Scripps Research Institute Molecular Screening Center, 2013).
Calls of active or inactive are those of the source. How the calls were made is not given here.

Tests used:
Test in all cases: in situ LYPLA1 and LYPLA2 inhibition, late-stage follow-up, gel-based ABPP, fluorescence, HEK293T, murine T cells (AID 651986)
[1] = molecular target: Acyl-protein thioesterase 1 (Homo sapiens) (UniProt O75608); details: HEK293T or murine T cells, NHU5 gel-based ABPP, LYPLA1 HEK293T cells, at 5 µM, hits give high values
[2] = molecular target: Acyl-protein thioesterase 2 (Homo sapiens) (UniProt O95372); details: HEK293T or murine T cells, NHU5 gel-based ABPP, LYPLA2 HEK293T cells, at 5 µM, hits give high values
LYPLA1 murine T cells = details: HEK293T or murine T cells, NHU5 gel-based ABPP, at 5 µM, hits give high values
LYPLA2 murine T cells = details: HEK293T or murine T cells, NHU5 gel-based ABPP, at 5 µM, hits give high values

Chain of Acyl-protein thioesterase 1 (Homo sapiens) (O75608 whole entry, looked up): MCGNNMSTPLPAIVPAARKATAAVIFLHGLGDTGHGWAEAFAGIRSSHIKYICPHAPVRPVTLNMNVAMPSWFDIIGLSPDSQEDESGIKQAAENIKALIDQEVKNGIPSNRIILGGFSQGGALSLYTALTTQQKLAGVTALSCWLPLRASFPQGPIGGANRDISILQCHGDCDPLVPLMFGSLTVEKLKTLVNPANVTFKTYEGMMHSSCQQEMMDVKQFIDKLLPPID
Chain of Acyl-protein thioesterase 2 (Homo sapiens) (O95372 whole entry, looked up): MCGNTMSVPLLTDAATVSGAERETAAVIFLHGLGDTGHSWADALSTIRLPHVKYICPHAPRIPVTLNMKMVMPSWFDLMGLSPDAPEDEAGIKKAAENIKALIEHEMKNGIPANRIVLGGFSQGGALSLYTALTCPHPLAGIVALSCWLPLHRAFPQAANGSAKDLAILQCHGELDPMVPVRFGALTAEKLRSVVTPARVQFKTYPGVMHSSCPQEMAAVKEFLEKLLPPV

SMILES	inhibition [1]	inhibition [2]	inhibition (LYPLA1 murine T cells)	inhibition (LYPLA2 murine T cells)
O=C(CN1CCN(C(=O)c2ccco2)CC1)Nc1cc(C(F)(F)F)ccc1Cl	100%	0% (inactive)	100%	0% (inactive)
COc1ccc(N2CCN(C(=O)c3cc4c(s3)-c3ccccc3S(=O)(=O)C4)CC2)cc1	0% (inactive)	100%	0% (inactive)	100%
